Blank lines part the entries; values can stand above or below the molecule they belong to.
Legend:
Format in all cases: biochemical
[1] = molecular target: T1, ITK (Homo sapiens, UniProt Q08881); assay: Inhibition of a panel of kinases, in vitro HotSpot kinase assay: ITK; conditions: E compounds, Table 17
T1 sequence (Q08881 1-620): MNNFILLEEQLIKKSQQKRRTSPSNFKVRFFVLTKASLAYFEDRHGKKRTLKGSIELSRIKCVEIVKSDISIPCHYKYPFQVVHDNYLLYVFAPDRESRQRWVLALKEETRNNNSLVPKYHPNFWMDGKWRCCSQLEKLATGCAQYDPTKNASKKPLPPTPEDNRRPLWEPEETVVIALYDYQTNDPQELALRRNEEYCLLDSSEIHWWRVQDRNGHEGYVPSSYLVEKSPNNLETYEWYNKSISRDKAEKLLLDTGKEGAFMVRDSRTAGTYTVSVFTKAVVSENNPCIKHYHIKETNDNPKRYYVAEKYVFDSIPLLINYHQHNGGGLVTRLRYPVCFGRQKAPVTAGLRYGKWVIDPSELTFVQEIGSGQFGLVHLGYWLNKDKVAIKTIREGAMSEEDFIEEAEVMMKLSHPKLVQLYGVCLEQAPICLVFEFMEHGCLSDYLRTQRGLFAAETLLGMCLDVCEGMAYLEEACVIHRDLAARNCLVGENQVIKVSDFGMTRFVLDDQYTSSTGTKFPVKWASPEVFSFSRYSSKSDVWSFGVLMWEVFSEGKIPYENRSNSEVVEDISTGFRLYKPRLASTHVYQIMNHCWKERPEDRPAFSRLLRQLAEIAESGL
Protocol: (§1) The degree of inhibition of a panel of kinases is determined using the in vitro HotSpot kinase assay (purified enzymes, ^33P-ATP, an appropriate substrate and 1 μM ATP).

[2] = molecular target: T2, BTK-WT (Homo sapiens, UniProt Q06187); assay: Btk in vitro inhibitory activity (one of Method A TR-FRET, Method B electrophoretic mobility shift, Method C radiometric filter binding); conditions: E compounds, Table 17; read-out: IC50 BTK-WT
T2 construct: purified from insect cells as a full-length construct containing an N-terminal 6X-His tag; His6 (N); made in house; host or cells: insect cells (baculovirus Sf21 in Method B)
T2 sequence (Q06187 whole entry): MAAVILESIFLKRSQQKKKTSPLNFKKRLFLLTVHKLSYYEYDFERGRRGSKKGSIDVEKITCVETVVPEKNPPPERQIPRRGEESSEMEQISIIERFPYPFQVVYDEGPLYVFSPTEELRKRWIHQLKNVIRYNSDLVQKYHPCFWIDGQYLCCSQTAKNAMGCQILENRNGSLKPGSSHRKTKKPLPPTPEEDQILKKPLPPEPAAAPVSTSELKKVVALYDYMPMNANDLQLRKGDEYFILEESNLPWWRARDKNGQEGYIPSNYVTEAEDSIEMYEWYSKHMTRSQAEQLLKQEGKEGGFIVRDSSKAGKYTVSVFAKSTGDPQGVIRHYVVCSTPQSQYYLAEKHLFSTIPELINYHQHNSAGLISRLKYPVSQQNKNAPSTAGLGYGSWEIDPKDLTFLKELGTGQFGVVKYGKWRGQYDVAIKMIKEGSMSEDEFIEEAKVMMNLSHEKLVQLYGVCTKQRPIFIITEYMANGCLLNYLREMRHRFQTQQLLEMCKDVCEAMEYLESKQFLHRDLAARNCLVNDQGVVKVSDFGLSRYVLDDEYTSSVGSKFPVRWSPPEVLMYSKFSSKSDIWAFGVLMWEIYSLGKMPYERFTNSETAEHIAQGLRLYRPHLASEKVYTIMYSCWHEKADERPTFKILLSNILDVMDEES

[3] = molecular target: T3, TEC (Homo sapiens, UniProt P42680); assay: Inhibition of a panel of kinases, in vitro HotSpot kinase assay: TEC; conditions: E compounds, Table 17
T3 sequence (P42680 1-631): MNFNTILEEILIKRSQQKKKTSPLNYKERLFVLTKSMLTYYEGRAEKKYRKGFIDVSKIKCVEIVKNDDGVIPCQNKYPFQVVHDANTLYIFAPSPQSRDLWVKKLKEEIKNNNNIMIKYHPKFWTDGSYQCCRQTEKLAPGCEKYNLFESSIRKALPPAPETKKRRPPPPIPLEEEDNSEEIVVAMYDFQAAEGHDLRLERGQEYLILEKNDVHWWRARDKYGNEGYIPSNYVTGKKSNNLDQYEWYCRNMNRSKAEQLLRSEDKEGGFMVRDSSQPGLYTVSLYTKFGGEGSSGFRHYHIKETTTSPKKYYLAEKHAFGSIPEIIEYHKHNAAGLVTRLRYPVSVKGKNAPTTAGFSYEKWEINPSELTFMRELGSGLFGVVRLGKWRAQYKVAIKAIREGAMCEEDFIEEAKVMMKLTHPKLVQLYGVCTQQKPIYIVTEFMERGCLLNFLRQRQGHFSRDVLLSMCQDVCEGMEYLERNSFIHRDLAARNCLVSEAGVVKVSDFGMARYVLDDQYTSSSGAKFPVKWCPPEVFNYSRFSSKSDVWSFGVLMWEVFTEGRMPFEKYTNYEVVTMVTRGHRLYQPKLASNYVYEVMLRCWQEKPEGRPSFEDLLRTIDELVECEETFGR
Protocol: as §1

IC50 [1]: 10 to 100 nM
IC50 [2]: ≤ 10 nM
IC50 [3]: ≤ 10 nM
SMILES: C=CC(=O)N1CCC[C@@H](Nc2nnc(C(N)=O)c(Nc3cnc4ccccc4c3)n2)C1 [Example E-54, (R)-3-(1-acryloylpiperidin-3-ylamino)-5-(quinolin-3-ylamino)-1,2,4-triazine-6-carboxamide]

IC50 [1]: ≤ 10 nM
IC50 [2]: ≤ 10 nM
IC50 [3]: ≤ 10 nM
SMILES: C=CC(=O)N1CCC[C@@H](Nc2nnc(C(N)=O)c(Nc3ccc(C(C)(C)C#N)cc3)n2)C1 [Example E-49, (R)-3-(1-acryloylpiperidin-3-ylamino)-5-(4-(2-cyanopropan-2-yl)phenylamino)-1,2,4-triazine-6-carboxamide]

IC50 [1]: 10 to 100 nM
IC50 [2]: ≤ 10 nM
IC50 [3]: ≤ 10 nM
SMILES: C=CC(=O)N1CCC[C@@H](Nc2nnc(C(N)=O)c(Nc3ccc(C)cc3)n2)C1 [Example E-43, (R)-3-(1-acryloylpiperidin-3-ylamino)-5-(p-tolylamino)-1,2,4-triazine-6-carboxamide]

IC50 [1]: 10 to 100 nM
IC50 [2]: ≤ 10 nM
IC50 [3]: ≤ 10 nM
SMILES: C=CC(=O)N1CCC[C@@H](Nc2nnc(C(N)=O)c(Nc3cccc(C(=O)N4CCOCC4)c3)n2)C1 [Example E-85, (R)-3-(1-acryloylpiperidin-3-ylamino)-5-(3-(morpholine-4-carbonyl)phenylamino)-1,2,4-triazine-6-carboxamide]

IC50 [1]: 10 to 100 nM
IC50 [2]: ≤ 10 nM
IC50 [3]: ≤ 10 nM
SMILES: C=CC(=O)N1CCC[C@@H](Nc2nnc(C(N)=O)c(Nc3ccc(C#N)cc3)n2)C1 [Example E-79, (R)-3-(1-acryloylpiperidin-3-ylamino)-5-(4-cyanophenylamino)-1,2,4-triazine-6-carboxamide]

IC50 [1]: 10 to 100 nM
IC50 [2]: ≤ 10 nM
IC50 [3]: ≤ 10 nM
SMILES: C=CC(=O)N1CCC[C@@H](Nc2nnc(C(N)=O)c(Nc3ccc(Cl)cc3)n2)C1 [Example E-74, (R)-3-(1-acryloylpiperidin-3-ylamino)-5-(4-chlorophenylamino)-1,2,4-triazine-6-carboxamide]

IC50 [1]: 10 to 100 nM
IC50 [2]: ≤ 10 nM
IC50 [3]: ≤ 10 nM
SMILES: C=CC(=O)N1CCC[C@@H](Nc2nnc(C(N)=O)c(Nc3cccc(C#N)c3)n2)C1 [Example E-77, (R)-3-(1-acryloylpiperidin-3-ylamino)-5-(3-cyanophenylamino)-1,2,4-triazine-6-carboxamide]

IC50 [1]: ≤ 10 nM
IC50 [2]: ≤ 10 nM
IC50 [3]: ≤ 10 nM
SMILES: C=CC(=O)N1CCC[C@@H](Nc2nnc(C(N)=O)c(Nc3ccc4ncsc4c3)n2)C1 [Example E-51, (R)-3-(1-acryloylpiperidin-3-ylamino)-5-(benzo[d]thiazol-6-ylamino)-1,2,4-triazine-6-carboxamide]

IC50 [1]: 100 to 1000 nM
IC50 [2]: ≤ 10 nM
IC50 [3]: ≤ 10 nM
SMILES: C=CC(=O)N1CCC[C@@H](Nc2nnc(C(N)=O)c(Nc3cncc(F)c3)n2)C1 [Example E-53, (R)-3-(1-acryloylpiperidin-3-ylamino)-5-(5-fluoropyridin-3-ylamino)-1,2,4-triazine-6-carboxamide]

IC50 [1]: 100 to 1000 nM
IC50 [2]: ≤ 10 nM
IC50 [3]: ≤ 10 nM
SMILES: C=CC(=O)N1CCC[C@@H](Nc2nnc(C(N)=O)c(Nc3cccc(C(=O)OCC)c3)n2)C1 [Example E-81, (R)-ethyl 3-(3-(1-acryloylpiperidin-3-ylamino)-6-carbamoyl-1,2,4-triazin-5-ylamino)benzoate]

IC50 [1]: 100 to 1000 nM
IC50 [2]: ≤ 10 nM
IC50 [3]: ≤ 10 nM
SMILES: C=CC(=O)N1CCC[C@@H](Nc2nnc(C(N)=O)c(Nc3cccc(C(=O)N4CCCCC4)c3)n2)C1 [Example E-87, (R)-3-(1-acryloylpiperidin-3-ylamino)-5-(3-(piperidine-1-carbonyl)phenylamino)-1,2,4-triazine-6-carboxamide]

IC50 [1]: 10 to 100 nM
IC50 [2]: ≤ 10 nM
IC50 [3]: ≤ 10 nM
SMILES: C=CC(=O)N1CCC[C@@H](Nc2nnc(C(N)=O)c(Nc3cc(F)cc(Cl)c3)n2)C1 [Example E-76, (R)-3-(1-acryloylpiperidin-3-ylamino)-5-(3-chloro-5-fluorophenylamino)-1,2,4-triazine-6-carboxamide]

The next lines start with the molecule.

SMILES: C=CC(=O)N1CC[C@@H](N(C)c2cnc(C(N)=O)c(Nc3cccc(-n4nccn4)c3)n2)C1 [Example E-113, (R)-3-(3-(2H-1,2,3-triazol-2-yl)phenylamino)-5-((1-acryloylpyrrolidin-3-yl)(methyl)amino) pyrazine-2-carboxamide]
IC50 [1]: 10 to 100 nM
IC50 [2]: ≤ 10 nM
IC50 [3]: ≤ 10 nM

SMILES: C=CC(=O)N1CCC[C@@H](Nc2nnc(C(N)=O)c(Nc3ccc(S(F)(F)(F)(F)F)cc3)n2)C1 [Example E-78, (R)-3-(1-acryloylpiperidin-3-ylamino)-5-(4-(penta-fluorothio)phenyl-amino)-1,2,4-triazine-6-carboxamide]
IC50 [1]: 10 to 100 nM
IC50 [2]: ≤ 10 nM
IC50 [3]: ≤ 10 nM

SMILES: C=CC(=O)N1CCC[C@@H](Nc2nnc(C(N)=O)c(Nc3ccc(CN(C(=O)OCc4ccccc4)[C@@H](C)C(C)(C)C)cc3)n2)C1 [Example E-56, benzyl 4-(3-((R)-1-acryloylpiperidin-3-ylamino)-6-carbamoyl-1,2,4-triazin-5-ylamino)benzyl((S)-3,3-dimethylbutan-2-yl)carbamate]
IC50 [1]: 10 to 100 nM
IC50 [2]: ≤ 10 nM
IC50 [3]: ≤ 10 nM

SMILES: CN(c1cnc(C(N)=O)c(Nc2ccc(C3CCN(C4CC4)CC3)cc2)n1)[C@@H]1CCN(C(=O)CCCl)C1 [Example E-122, (R)-5-((1-(3-chloropropanoyl)pyrrolidin-3-yl)(methyl)amino)-3-(4-(1-cyclopropylpiperidin-4-yl)phenylamino)pyrazine-2-carboxamide]
IC50 [1]: ≤ 10 nM
IC50 [2]: ≤ 10 nM
IC50 [3]: ≤ 10 nM

SMILES: C=CC(=O)N1CC[C@@H](N(C)c2cnc(C(N)=O)c(Nc3ccc(C(O)(C(F)(F)F)C(F)(F)F)cc3)n2)C1 [Example E-120, (R)-5-((1-acryloylpyrrolidin-3-yl)(methyl)amino)-3-(4-(1,1,1,3,3,3-hexafluoro-2-hydroxypropan-2-yl)phenylamino)pyrazine-2-carboxamide]
IC50 [1]: ≤ 10 nM
IC50 [2]: ≤ 10 nM
IC50 [3]: ≤ 10 nM

SMILES: C=CC(=O)NC[C@H]1CCCN1c1nnc(C(N)=O)c(Nc2ccc(C(C)C)cc2)n1 [Example E-90, (R)-3-(2-(acrylamido-methyl)pyrrolidin-1-yl)-5-(4-isopropylphenyl-amino)-1,2,4-triazine-6-carboxamide]
IC50 [1]: 10 to 100 nM
IC50 [2]: ≤ 10 nM
IC50 [3]: ≤ 10 nM

SMILES: C=CC(=O)N1CC[C@@H](N(C)c2cnc(C(N)=O)c(Nc3cc(C)ns3)n2)C1 [Example E-114, (R)-5-((1-acryloylpyrrolidin-3-yl)(methyl)amino)-3-(3-methylisothiazol-5-ylamino)pyrazine-2-carboxamide]
IC50 [1]: ≤ 10 nM
IC50 [2]: ≤ 10 nM
IC50 [3]: ≤ 10 nM

SMILES: C=CC(=O)N1CC[C@@H](N(C)c2cnc(C(N)=O)c(Nc3ccc(N4CCN(C)CC4)cc3)n2)C1 [Example E-111, (R)-5-((1-acryloylpyrrolidin-3-yl)(methyl)amino)-3-(4-(4-methylpiperazin-1-yl)phenylamino)pyrazine-2-carboxamide]
IC50 [1]: ≤ 10 nM
IC50 [2]: ≤ 10 nM
IC50 [3]: ≤ 10 nM

SMILES: C=CC(=O)N1CCC[C@@H](Nc2nnc(C(N)=O)c(Nc3ccc(C4CCN(C5CCCC5)CC4)cc3)n2)C1 [Example E-48, (R)-3-(1-acryloylpiperidin-3-ylamino)-5-(4-(1-cyclopentylpiperidin-4-yl)phenylamino)-1,2,4-triazine-6-carboxamide]
IC50 [1]: ≤ 10 nM
IC50 [2]: ≤ 10 nM
IC50 [3]: ≤ 10 nM

SMILES: C=CC(=O)N1CC[C@@H](N(C)c2cnc(C(N)=O)c(Nc3cccc(-c4nccn4C)c3)n2)C1 [Example E-112, (R)-5-((1-acryloylpyrrolidin-3-yl)(methyl)amino)-3-(3-(1-methyl-1H-imidazol-2-yl)phenylamino)pyrazine-2-carboxamide]
IC50 [1]: 10 to 100 nM
IC50 [2]: ≤ 10 nM
IC50 [3]: ≤ 10 nM
